B1: 12×TAPE-1: 12 repeats of the 14-bp TAPE-1 monomer, SEQ ID NO: 118 (nucleic acid)
DNA: CACCNNNNNNNNGGATGATGGTGAGCACGTGATGGTGAGCACGTGATGGTGAGCACGTGATGGTGAGCACGTGATGGTGAGCACGTGATGGTGAGCACGTGATGGTGAGCACGTGATGGTGAGCACGTGATGGTGAGCACGTGATGGTGAGCACGTGATGGTGAGCACGTGATGGTGAGCACGTGATGGTGAGCGCTTTAAGGC

Legend:
Type in all cases: cell-based
[1] = system: HEK293T cells; test: DNA Typewriter: sequential prime editing of integrated TAPE-1 arrays, pegRNA pool + PE2, amplicon sequencing; details: PE2 and pegRNAs
Excerpt: To test this idea, DNA Tape (“TAPE-1”) was designed by modifying a spacer sequence previously shown to be highly amenable to prime editing by the PE2 enzyme (HEK293 target 3 or HEK3). In TAPE-1, a 3-bp key (GGA) is followed by one tandem array of a 14-bp monomer (TGATGGTGAGCACG) (SEQ ID NO: 57) that includes the PAM sequence (TGG) at positions 4-6. At the 5′-most end of the TAPE-1 array, the key sequence, the first 14-bp monomer, and the first 6 bases of the subsequent 14-bp monomer, collectively comprise an intact 20-bp spacer and PAM (FIG. 1A). A set of 16 pegRNAs was further designed to target TAPE-1, with each pegRNA programming a distinct 5-bp insertion (FIG. 1B). The first 2-bp of the insertion is unique to each of the 16 pegRNAs. The remaining 3-bp of the insertion corresponds to the key (GGA). The inventors reasoned that when a pegRNA/PE2-mediated insertion occurred at the active TAPE-1 site, it would: (1) record the identity of the pegRNA via the 2-bp portion of the insertion; (2) inactivate the current active site by disrupting its sequence; and (3) activate the next monomer along the array, as the newly inserted GGA key, together with the subsequent […], creates an intact 20-bp spacer and PAM. In the next iteration of genome editing, a pegRNA-mediated insertion to the second monomer would be recorded while also moving the type-guide to the third monomer, and then to the fourth, the fifth, and so on (FIG. 1C).
TAPE-1 arrays were synthesized and cloned with varying numbers of monomer units (2×TAPE-1, 3×TAPE-1, 5×TAPE-1), and stably integrated these arrays into the genome of HEK293T cells via the piggyBAC system. The resulting cells were transiently transfected with a pool of plasmids designed to express PE2 (pCMV-PE2-P2A-GFP; Addgene #132776) and sixteen pegRNAs, each programmed to insert an NNGGA barcode to TAPE-1, and harvested them after four days. The TAPE-1 region was PCR-amplified from genomic DNA and sequenced.
For each TAPE-1 array, the sequencing reads were categorized into those in which: (1) no editing occurred; (2) the observed pattern was consistent with sequential, directional editing; or (3) the observed pattern was inconsistent with sequential, directional editing (FIG. 1D-F; Table 1). […] However, within the set of reads showing edits, the data were overwhelmingly consistent with sequential, directional editing. For example, with 2×TAPE-1, the second monomer was edited in 22.8±1.7% of reads in which the first monomer was also edited (FIG. 1D). In contrast, the second monomer was only edited in 0.6% of reads in which the first monomer was not edited. […] Data obtained from 3×TAPE-1 and 5×TAPE-1 were also consistent with sequential genome editing. For example, 98.5% (3×TAPE-1) and 99.0% (5×TAPE-1) of reads that were edited at the second monomer were also edited at the first monomer, while 97.6% (3×TAPE-1) and 98.8% (5×TAPE-1) of reads that were edited at the third monomer were also edited at the first and second monomers (FIG. 1E-1F).
Table 1. Read counts and editing efficiencies for 2×TAPE-1, 3×TAPE-1, and 5×TAPE-1. Sequencing reads were grouped based on the observed editing pattern. For example, reads from 2×TAPE-1 array were categorized into four groups: (A) no edit at either TAPE-1 site (‘OO’); (B) 5-bp insertion at the first TAPE-1 site only (‘XO’); (C) 5-bp insertion at the second TAPE-1 site only (‘OX’); or (D) 5-bp insertions at both TAPE-1 sites (‘XX’). For reads from 5×TAPE-1 array, editing groups were simplified by categorizing directional and iterative editing pattern (OOOOO, XO, XXO, XXXO, XXXXO, and XXXXX) and the erroneous editing patterns (OX, NOX, NNOX, and NNNOX, where N can be either O or X). Editing efficiencies at each site were calculated as the fraction of reads with an edit at the site over the total number of reads in which the site had been activated via insertion of the ‘key’ that completed the spacer sequence. […]

[2] = system: iPE2(+) HEK293T; test: Monoclonal lineage tracing, TargetBC-5×TAPE-1 arrays, sc-RNA-seq; details: after 25 days of editing, Dox
Excerpt: The ordered manner in which edits accrue with DNA Typewriter, the use of a prime editor with a Cas9 nickase to insert one of many possible “symbols” at the type-guide, the predefined sequences and locations of potential edits, and the fact that one-and-only-one monomer is an active type-guide at any given moment, have the potential to address all of these limitations at once. […] First, a HEK293T cell line that expresses doxycycline (Dox)-inducible PE2 (iPE2(+) HEK293T) was constructed. A lentiviral construct was designed and cloned that includes: (1) the 5×TAPE-1 sequence, associated with a random 8-bp barcode region (TargetBC) at its 5′-end; (2) a transcription cassette for the TargetBC-5×TAPE-1 with a reverse transcription capture sequence for enrichment during sc-RNA-seq; and (3) a constitutive pegRNA expression cassette that targets TAPE-1 for a 6-bp insertion (NNNGGA; referred to below as InsertBC; GGA is the key sequence for TAPE-1) (FIG. 4A). Lentiviral transduction of this construct to the cell line at a high multiplicity of infection (MOI) was followed by serial dilution to isolate a monoclonal cell line that grew from 1 cell to ˜1.2M cells via ˜20 doublings over 25 days in the presence of Dox (FIG. 4B; FIG. 10A). After harvesting, sc-RNA-seq was used to recover and sequence multiple TargetBC-5×TAPE-1 arrays from each of ˜12,000 cells. […]

[3] = system: HEK293T cells; test: Screen of 48 3×TAPE constructs: efficiency and sequential error rate; details: 48 tested tapes
Procedure: In each of these 48 constructs, a 3×TAPE region was accompanied by a pegRNA-expressing cassette designed to target it with a 4-6 bp insertion (16 possible 2-bp barcodes followed by a 2-4 bp key sequence). HEK293T cells were transiently transfected with PE2-encoding plasmid and a pool of 48 pegRNA-by-3×TAPE constructs and harvested them after four days. The 3×TAPE region was PCR-amplified from genomic DNA and sequenced.
Two quantities were calculated for each 3×TAPE array: (1) efficiency, calculated by summing all edited reads and dividing by the total number of reads; and (2) sequential error rate, calculated by summing all edited reads inconsistent with sequential, directional editing and dividing by the total number of edited reads (FIG. 7B). […] Indeed, across the full experiment, a longer key sequence was associated with a lower sequential error rate (FIG. 7C). […] Performance characteristics were highly consistent when the experiment was repeated with integration rather than transient transfection of the constructs (FIG. 7E).

[4] = system: PE2(+) 3N-TAPE-1-pegRNA(+) HEK293T; test: Editing and recovery of 12× and 20×TAPE-1 arrays, 40 days, PacBio sequencing; details: 40 days culture
Excerpt: To evaluate the extent to which such issues might be limiting in practice, a synthetic minisatellite in the form of 12 or 20 repeats of the 14-bp TAPE-1 monomer was generated. 12×TAPE-1 was synthesised as single-stranded DNA (IDT) and 20×TAPE-1 as a plasmid (GenScript). PCR amplicons of each array were cloned into the piggyBAC vector via Gibson assembly. Of note, cloned constructs were used “as is”, even though it is possible that some degree of variation in repeat number was already present (FIG. 11A-11B). […] PCR amplification of TAPE-1 was followed by standard library construction and sequencing on the Pacific Bioscience Sequel platform to obtain circular consensus sequencing (CCS) reads. […]
CCS reads were grouped within each replicate based on a degenerate 8-bp barcode (TargetBC), as these presumably derived from the same integration. On average, each TargetBC group had 3.1±3.4 and 3.8±5.7 reads for ˜ 12×TAPE-1 and ˜20×TAPE-1, respectively.
For long-read amplicon sequencing library preparation, a two-step PCR protocol was used: the first PCR reaction (KAPA Robust polymerase) included 1.5 uL of cell lysate, 0.04 to 0.4 uM of forward and reverse primers in a final reaction volume of 25 μL. […] After the first PCR step, products were assessed on 6% TBE-gel and purified using 0.6×AMPure (Beckman Coulter) and added to the second PCR reaction that appended PacBio sample indexes. […]

Molecule	Editing rate of the first TAPE-1 monomer [1] [%]	Editing rates of the second or third monomers, conditional on preceding monomers already edited [1] [%]	Fifth sites edited (mean) [2] [%]	First sites of active arrays edited (mean) [2] [%]	Sequential error rate (in words) [3]	Edits per array [4] [edits]	Repeats of TAPE-1 monomers recovered (average) [4] [repeats]
TAPE-1: DNA Tape: 3-bp key GGA and tandem array of 14-bp monomer TGATGGTGAGCACG, from HEK3; SEQ ID NO: 2 (DNA GGATGATGGTGAGCACGTGATGGTGAGCACG; listed as DNA, chemistry not fully specified; the letters are possibly those of the target site)	~6	~20	19.7	96.8	one of the lowest sequential error rates among the 48 tested tapes		
B1						4.5±1.3	8.4±3.3

— US20240355418A1, “MULTIPLEX, TEMPORALLY RESOLVED MOLECULAR SIGNAL RECORDER AND RELATED METHODS” (University of Washington, priority 2021, published 2024)
